Test results taken from ChEMBL document CHEMBL1201862, “PubChem BioAssay data set” (2004).
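Five concentrations, 48 hours, 96-well plates. GI50 is the concentration that inhibits growth by half.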 Activity calls are given as the source filed them. Rule as the data show it: active = GI50 up to about 1.1 µM and inactive = higher.

What was measured:
Test in all cases: DTP human tumour cell line panel, 48 h
[1] = tested on: SF-295
[2] = tested on: UACC-62
[3] = tested on: OVCAR-4
[4] = tested on: NCI-H23
[5] = tested on: M14
[6] = tested on: UACC-257
[7] = tested on: HCC 2998
[8] = tested on: SK-MEL-5
[9] = tested on: U-251
[10] = tested on: A498
[11] = tested on: HOP-92
[12] = tested on: K562
[13] = tested on: SR
[14] = tested on: OVCAR-8
[15] = tested on: MDA-N
[16] = tested on: SW-620
[17] = tested on: HCT-116
[18] = tested on: CCRF-CEM
[19] = tested on: SNB-75

| Compound | GI50 [1] | GI50 [2] | GI50 [3] | GI50 [4] | GI50 [5] | GI50 [6] | GI50 [7] | GI50 [8] | GI50 [9] | GI50 [10] | GI50 [11] | GI50 [12] | GI50 [13] | GI50 [14] | GI50 [15] | GI50 [16] | GI50 [17] | GI50 [18] | GI50 [19] |
| --- | --- | --- | --- | --- | --- | --- | --- | --- | --- | --- | --- | --- | --- | --- | --- | --- | --- | --- | --- |
| Cc1ccc(-c2c(C#N)c(N)[nH]c(=S)c2C#N)cc1 | 32.8 µM (inactive) | 35.4 µM (inactive) | 54.7 µM (inactive) | 39.7 µM (inactive) | 43.6 µM (inactive) | 34.5 µM (inactive) | 26.7 µM (inactive) | 23.4 µM (inactive) | 49.1 µM (inactive) | 35.2 µM (inactive) | 31.4 µM (inactive) | 21.1 µM (inactive) | 22.2 µM (inactive) | 46.3 µM (inactive) | 18.5 µM (inactive) | 13.6 µM (inactive) | 32.4 µM (inactive) | – | – |
| c1csc(-c2ccc(-c3cccc4nsnc34)s2)c1 | 44.8 µM (inactive) | > 100 µM (inactive) | 21.7 µM (inactive) | > 100 µM (inactive) | > 100 µM (inactive) | > 100 µM (inactive) | > 100 µM (inactive) | > 100 µM (inactive) | 91.2 µM (inactive) | > 100 µM (inactive) | – | 32 µM (inactive) | 13 µM (inactive) | > 100 µM (inactive) | 40.4 µM (inactive) | > 100 µM (inactive) | 94.8 µM (inactive) | 20.2 µM (inactive) | 49.3 µM (inactive) |
| CC1=NN(C(=O)CC(=O)Nc2ccccc2Cl)C(=O)C1/N=N/c1ccc(C(=O)O)cc1 (configuration not stated) | > 100 µM (inactive) | > 100 µM (inactive) | > 100 µM (inactive) | > 100 µM (inactive) | > 100 µM (inactive) | > 100 µM (inactive) | > 100 µM (inactive) | > 100 µM (inactive) | > 100 µM (inactive) | > 100 µM (inactive) | 19.6 µM (inactive) | > 100 µM (inactive) | 51.1 µM (inactive) | > 100 µM (inactive) | > 100 µM (inactive) | > 100 µM (inactive) | > 100 µM (inactive) | > 100 µM (inactive) | – |
| Nc1nc(N)c(N=Nc2ccc([As](=O)(O)O)c(O)c2)c(N)n1 | 33.7 µM (inactive) | 31.5 µM (inactive) | 32.1 µM (inactive) | 7.57 µM (inactive) | 35.6 µM (inactive) | 91.6 µM (inactive) | – | 20.3 µM (inactive) | 22.9 µM (inactive) | 83.6 µM (inactive) | 35.3 µM (inactive) | 11.1 µM (inactive) | 0.834 µM (active) | 13.7 µM (inactive) | 0.839 µM (active) | 4.89 µM (inactive) | 7.24 µM (inactive) | 1.9 µM (inactive) | 11.5 µM (inactive) |
| OCCCCn1cc(Cn2ncc3c(NCc4ccccc4)ncnc32)nn1 | > 100 µM (inactive) | > 100 µM (inactive) | > 100 µM (inactive) | > 100 µM (inactive) | > 100 µM (inactive) | > 100 µM (inactive) | > 100 µM (inactive) | > 100 µM (inactive) | > 100 µM (inactive) | > 100 µM (inactive) | > 100 µM (inactive) | 44.3 µM (inactive) | 15.9 µM (inactive) | > 100 µM (inactive) | 42.8 µM (inactive) | > 100 µM (inactive) | > 100 µM (inactive) | > 100 µM (inactive) | – |
| CCOC(=O)NC(C(C(=O)OCC)C(=O)OCC)(C(F)(F)F)C(F)(F)F | > 100 µM (inactive) | > 100 µM (inactive) | > 100 µM (inactive) | > 100 µM (inactive) | > 100 µM (inactive) | > 100 µM (inactive) | – | > 100 µM (inactive) | > 100 µM (inactive) | > 100 µM (inactive) | > 100 µM (inactive) | > 100 µM (inactive) | > 100 µM (inactive) | > 100 µM (inactive) | > 100 µM (inactive) | > 100 µM (inactive) | > 100 µM (inactive) | > 100 µM (inactive) | > 100 µM (inactive) |
